Experimental data: PubChem BioAssay (NCI)
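Protocol summary: plate cells (96-well), add compound at 5 concentrations, incubate 48 h, interpolate endpoints linearly. Here, GI50 denotes the concentration required for 50% inhibition of growth. The concentration for full growth arrest is given as TGI.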

Columns and labels:
Assay in all cases: growth of human tumour cells (NCI), 48 h
CCRF-CEM leukemia = system: CCRF-CEM leukemia
RXF 393 renal = system: RXF 393 renal
SNB-19 CNS = system: SNB-19 CNS
UACC-257 melanoma = system: UACC-257 melanoma
COLO 205 colon = system: COLO 205 colon
MCF7 breast = system: MCF7 breast
HCC-2998 colon = system: HCC-2998 colon
NCI-H23 lung = system: NCI-H23 lung
IGROV1 ovarian = system: IGROV1 ovarian
ACHN renal = system: ACHN renal
HT29 colon = system: HT29 colon
PC-3 prostate = system: PC-3 prostate
HCT-116 colon = system: HCT-116 colon
HCT-15 colon = system: HCT-15 colon
A549 NSCLC = system: A549 NSCLC
HOP-62 NSCLC = system: HOP-62 NSCLC
MOLT-4 leukemia = system: MOLT-4 leukemia
NCI/ADR-RES ovarian = system: NCI/ADR-RES ovarian
NCI-H460 lung = system: NCI-H460 lung
OVCAR-8 ovarian = system: OVCAR-8 ovarian
SK-OV-3 ovarian = system: SK-OV-3 ovarian
U251 CNS = system: U251 CNS
SR leukemia = system: SR leukemia
SK-MEL-28 melanoma = system: SK-MEL-28 melanoma
MDA-MB-231 breast = system: MDA-MB-231 breast
NCI-H522 lung = system: NCI-H522 lung
786-0 renal = system: 786-0 renal
CAKI-1 renal = system: CAKI-1 renal
MDA-MB-435 = system: MDA-MB-435
DU-145 prostate = system: DU-145 prostate
SF-539 CNS = system: SF-539 CNS
SNB-75 CNS = system: SNB-75 CNS
SF-295 CNS = system: SF-295 CNS
EKVX NSCLC = system: EKVX NSCLC
HL-60(TB) leukemia = system: HL-60(TB) leukemia
NCI-H226 lung = system: NCI-H226 lung
HS 578T breast = system: HS 578T breast
OVCAR-3 ovarian = system: OVCAR-3 ovarian
SF-268 CNS = system: SF-268 CNS
MALME-3M melanoma = system: MALME-3M melanoma
TK-10 renal = system: TK-10 renal
SK-MEL-5 melanoma = system: SK-MEL-5 melanoma
SN12C renal = system: SN12C renal
BT-549 breast = system: BT-549 breast
M14 melanoma = system: M14 melanoma
LOX IMVI melanoma = system: LOX IMVI melanoma
KM12 colon = system: KM12 colon
OVCAR-4 ovarian = system: OVCAR-4 ovarian
SK-MEL-2 melanoma = system: SK-MEL-2 melanoma
UO-31 renal = system: UO-31 renal
RPMI-8226 leukemia = system: RPMI-8226 leukemia
SW-620 colon = system: SW-620 colon
HOP-92 NSCLC = system: HOP-92 NSCLC
A498 renal = system: A498 renal
UACC-62 melanoma = system: UACC-62 melanoma
OVCAR-5 ovarian = system: OVCAR-5 ovarian
T-47D breast = system: T-47D breast
K-562 leukemia = system: K-562 leukemia

SMILES: Cc1cc2nc3c4cc(Cl)ccc4n(CCN(C)C)c3nc2cc1C
- GI50 (CCRF-CEM leukemia): 1220 nM
- TGI (CCRF-CEM leukemia): 4630 nM
- GI50 (RXF 393 renal): 1590 nM
- TGI (RXF 393 renal): 3320 nM
- GI50 (SNB-19 CNS): 1920 nM
- TGI (SNB-19 CNS): 6830 nM
- GI50 (UACC-257 melanoma): 1760 nM
- TGI (UACC-257 melanoma): 3590 nM
- GI50 (COLO 205 colon): 1280 nM
- TGI (COLO 205 colon): 3240 nM
- GI50 (MCF7 breast): 1060 nM
- TGI (MCF7 breast): 2490 nM
- GI50 (HCC-2998 colon): 1350 nM
- TGI (HCC-2998 colon): 2740 nM
- GI50 (NCI-H23 lung): 1650 nM
- TGI (NCI-H23 lung): 3950 nM
- GI50 (IGROV1 ovarian): 1350 nM
- TGI (IGROV1 ovarian): 3860 nM
- GI50 (ACHN renal): 660 nM
- TGI (ACHN renal): 2010 nM
- GI50 (HT29 colon): 1130 nM
- TGI (HT29 colon): 3660 nM
- GI50 (PC-3 prostate): 1650 nM
- TGI (PC-3 prostate): 4740 nM
- GI50 (HCT-116 colon): 700 nM
- TGI (HCT-116 colon): 2080 nM
- GI50 (HCT-15 colon): 821 nM
- TGI (HCT-15 colon): 4700 nM
- GI50 (A549 NSCLC): 1510 nM
- TGI (A549 NSCLC): 4170 nM
- GI50 (HOP-62 NSCLC): 1530 nM
- TGI (HOP-62 NSCLC): 4570 nM
- GI50 (MOLT-4 leukemia): 586 nM
- TGI (MOLT-4 leukemia): 3440 nM
- GI50 (NCI/ADR-RES ovarian): 1070 nM
- TGI (NCI/ADR-RES ovarian): 5040 nM
- GI50 (NCI-H460 lung): 1340 nM
- TGI (NCI-H460 lung): 2850 nM
- GI50 (OVCAR-8 ovarian): 1400 nM
- TGI (OVCAR-8 ovarian): 6330 nM
- GI50 (SK-OV-3 ovarian): 2750 nM
- TGI (SK-OV-3 ovarian): 10600 nM
- GI50 (U251 CNS): 1430 nM
- TGI (U251 CNS): 3140 nM
- GI50 (SR leukemia): 682 nM
- TGI (SR leukemia): 2880 nM
- GI50 (SK-MEL-28 melanoma): 2000 nM
- TGI (SK-MEL-28 melanoma): 3530 nM
- GI50 (MDA-MB-231 breast): 1600 nM
- TGI (MDA-MB-231 breast): 4810 nM
- GI50 (NCI-H522 lung): 1410 nM
- TGI (NCI-H522 lung): 3270 nM
- GI50 (786-0 renal): 1810 nM
- TGI (786-0 renal): 4220 nM
- GI50 (CAKI-1 renal): 1060 nM
- TGI (CAKI-1 renal): 2800 nM
- GI50 (MDA-MB-435): 1690 nM
- TGI (MDA-MB-435): 3190 nM
- GI50 (DU-145 prostate): 2140 nM
- TGI (DU-145 prostate): 4620 nM
- GI50 (SF-539 CNS): 1550 nM
- TGI (SF-539 CNS): 2940 nM
- GI50 (SNB-75 CNS): 738 nM
- TGI (SNB-75 CNS): 6240 nM
- GI50 (SF-295 CNS): 1910 nM
- TGI (SF-295 CNS): 3790 nM
- GI50 (EKVX NSCLC): 2450 nM
- TGI (EKVX NSCLC): 6770 nM
- GI50 (HL-60(TB) leukemia): 1930 nM
- TGI (HL-60(TB) leukemia): 4330 nM
- GI50 (NCI-H226 lung): 1980 nM
- TGI (NCI-H226 lung): 4240 nM
- GI50 (HS 578T breast): 2350 nM
- TGI (HS 578T breast): 6990 nM
- GI50 (OVCAR-3 ovarian): 1920 nM
- TGI (OVCAR-3 ovarian): 4760 nM
- GI50 (SF-268 CNS): 1930 nM
- TGI (SF-268 CNS): 5290 nM
- GI50 (MALME-3M melanoma): 1720 nM
- TGI (MALME-3M melanoma): 3330 nM
- GI50 (TK-10 renal): 2510 nM
- TGI (TK-10 renal): 5740 nM
- GI50 (SK-MEL-5 melanoma): 1800 nM
- TGI (SK-MEL-5 melanoma): 3220 nM
- GI50 (SN12C renal): 1610 nM
- TGI (SN12C renal): 8450 nM
- GI50 (BT-549 breast): 2530 nM
- TGI (BT-549 breast): 8190 nM
- GI50 (M14 melanoma): 1490 nM
- TGI (M14 melanoma): 2930 nM
- GI50 (LOX IMVI melanoma): 1130 nM
- TGI (LOX IMVI melanoma): 2370 nM
- GI50 (KM12 colon): 1550 nM
- TGI (KM12 colon): 3170 nM
- GI50 (OVCAR-4 ovarian): 1720 nM
- TGI (OVCAR-4 ovarian): 9080 nM
- GI50 (SK-MEL-2 melanoma): 2080 nM
- TGI (SK-MEL-2 melanoma): 4450 nM
- GI50 (UO-31 renal): 389 nM
- TGI (UO-31 renal): 3350 nM
- GI50 (RPMI-8226 leukemia): 1550 nM
- TGI (RPMI-8226 leukemia): 4120 nM
- GI50 (SW-620 colon): 821 nM
- TGI (SW-620 colon): 2250 nM
- GI50 (HOP-92 NSCLC): 498 nM
- TGI (HOP-92 NSCLC): 3610 nM
- GI50 (A498 renal): 1290 nM
- TGI (A498 renal): 2630 nM
- GI50 (UACC-62 melanoma): 1650 nM
- TGI (UACC-62 melanoma): 3300 nM
- GI50 (OVCAR-5 ovarian): 2000 nM
- TGI (OVCAR-5 ovarian): 5200 nM
- GI50 (T-47D breast): 2980 nM
- TGI (T-47D breast): 16600 nM
- GI50 (K-562 leukemia): 1360 nM
- TGI (K-562 leukemia): 4030 nM
